Test results from patent US9290788B2, “Device for determining or studying the state of stimulation of the natural defences of plants or portions of plants” (Institut National De La Recherche Agronomique, priority 2010, dated 2016).
Several values for one entry are separate records, joined by “and”; a condition that tells them apart may be missing. Equal entries are not always repeated.

Experiments:
[1] = tested on: fire blight (Erwinia amylovora); settings: Test 1, controlled conditions
[2] = tested on: 28 target genes (defense genes) in apple tree leaves; assay: Test 1: relative expression of the 28 defense genes (qPCR, ΔΔCt) in apple tree seedling leaves subjected to NDS treatments and abiotic stresses; format: in vivo, apple tree seedlings (Golden Delicious); settings: for effect on the modulation of target gene expression (in words): Test 1
[3] = tested on: 28 target genes (defense genes) in apple tree leaves; assay: Test 2: analysis of defenses, expression of the 28 genes (qPCR) in apple tree seedlings sprayed with 10 NDS candidates, with or without hydrogen peroxide; format: in vivo, apple tree seedlings (Golden Delicious)
[4] = +H2O2, J2, relative to water control
[5] = +H2O2, J3, relative to water control
[6] = vs water control, +H2O2 (sprayed 24 hours after treatment), J2
[7] = vs water control, +H2O2 (sprayed 24 hours after treatment), J3
[8] = −H2O2, J2, relative to water control
[9] = −H2O2, J3, relative to water control
[10] = abiotic stress, J2, relative to water control
[11] = abiotic stress, J3, relative to water control
[12] = vs water control, abiotic stress treatment, J2

CC(N)CC(=O)O (racemic) [Baba, DL-β-amino-n-butyric acid]
protection against fire blight [1]: no protective effect against fire blight | Relative expression APOX (log base 2) [2, 4]: 1.49 and 1.76 | Relative expression JAR (log base 2) [2, 4]: −0.44 and −0.16 | Relative expression POX (log base 2) [2, 4]: 2.20 and 2.28 | Relative expression CAD (log base 2) [2, 5]: −0.15 and −0.29 | Relative expression CalS (log base 2) [2, 5]: 2.10 and 1.88 | direct stimulator versus potentiator: gene expression after additional H2O2 treatment ([2]; H2O2 sprayed 24 hours after treatment): triggers the expression of some genes (POX, Pect, for example) | effect on the modulation of target gene expression (in words) [2]: little effect on the modulations of genes | Relative expression of ANS [2, 6]: 1.41 log2 and 2.12 log2 | Relative expression of PAL [2, 6]: 0.29 log2 and 0.55 log2 | Relative expression of PR-15 [2, 6]: 0.84 log2 and 0.71 log2 | Relative expression of PR-1 [2, 7]: 2.71 log2 and 1.77 log2 | Relative expression of PR-5 [2, 7]: 1.91 log2 and 1.34 log2 | Relative expression of PR-15 [2, 7]: 1.46 log2 and 2.06 log2 | Relative expression of ANS ([2]; vs water control, −H2O2, J2): 1.28 log2 and 1.53 log2 | Relative expression of PAL ([2]; vs water control, −H2O2, J2): 0.42 log2 and 0.27 log2 | Relative expression of PAL ([2]; vs water control, −H2O2, J3): 0.20 log2 and 0.29 log2 | Relative expression CHS (log base 2) [2, 8]: 0.27 and 0.29 | Relative expression DFR (log base 2) [2, 8]: 0.64 and 0.93 | Relative expression GST (log base 2) [2, 8]: −0.05 and −0.34 | Relative expression CHS (log base 2) [2, 9]: 0.19 and 0.31 | Relative expression FPPS (log base 2) [2, 9]: 0.46 and 0.56

OO [H2O2, hydrogen peroxide]
ANS expression ([3]; J2 + H2O2): −0.63 | CHS expression ([3]; J2 + H2O2): −0.80 | DFR expression ([3]; J2 + H2O2): −0.65 | FPPS expression ([3]; J2 + H2O2): 0.06 | HMGR expression ([3]; J2 + H2O2): 1.05 | PAL expression ([3]; J2 + H2O2): −0.56 | PPO expression ([3]; J2 + H2O2): 1.20 | PR1 expression ([3]; J2 + H2O2): 0.85 | PR2 expression ([3]; J2 + H2O2): 3.69 | PR4 expression ([3]; J2 + H2O2): 3.89 | PR5 expression ([3]; J2 + H2O2): 0.91 | PR8 expression ([3]; J2 + H2O2): 2.12 | PR14 expression ([3]; J2 + H2O2): 1.32 | PR15 expression ([3]; J2 + H2O2): −0.26 | ANS expression ([3]; J3 + H2O2): −0.49 | CHS expression ([3]; J3 + H2O2): −0.75 | DFR expression ([3]; J3 + H2O2): −0.36 | FPPS expression ([3]; J3 + H2O2): 0.08 | HMGR expression ([3]; J3 + H2O2): 0.14 | PAL expression ([3]; J3 + H2O2): −0.57 | PPO expression ([3]; J3 + H2O2): 0.71 | PR1 expression ([3]; J3 + H2O2): 1.41 | PR2 expression ([3]; J3 + H2O2): 4.05 | PR4 expression ([3]; J3 + H2O2): 2.59 | PR5 expression ([3]; J3 + H2O2): 1.73 | PR8 expression ([3]; J3 + H2O2): 1.73 | PR14 expression ([3]; J3 + H2O2): 3.29 | PR15 expression ([3]; J3 + H2O2): 1.57 | effect on the modulation of target gene expression (in words) [2]: only slightly modulate the target gene expressions | Relative expression APOX (log base 2) [2, 10]: 0.41 and 0.38 | Relative expression DFR (log base 2) [2, 10]: 0.50 and 0.80 | Relative expression EIN3 (log base 2) [2, 10]: 1.44 and 1.53 | Relative expression POX (log base 2) [2, 10]: 1.07 and 1.06 | Relative expression WRKY (log base 2) [2, 10]: −0.04 and −0.12 | Relative expression CAD (log base 2) [2, 11]: −0.72 and −0.54 | Relative expression GST (log base 2) [2, 11]: 0.33 and 0.40 | Relative expression LOX2 (log base 2) [2, 11]: 0.16 and 0.42 | Relative expression of PR-2 [2, 12]: 4.75 log2 and 3.92 log2 | Relative expression of PR-4 [2, 12]: 2.53 log2 and 4.27 log2 | Relative expression of PR-8 [2, 12]: 0.83 log2 and 0.79 log2 | Relative expression of PR-2 ([2]; vs water control, abiotic stress treatment, J3): 2.36 log2 and 3.38 log2
